Where a SMILES comes first, the peptide text is derived from it. Where no end group is shown, it is not given here. [ ]: non-standard residue; d: D form. The star is where a group is joined. Dip = N[C@H](C(=O)O)C(c1ccccc1)c1ccccc1; X1 = C=CCC(N*)B1OC2CC3CC(C3(C)C)C2(C)O1; Cha = N[C@@H](CC1CCCCC1)C(=O)O; AlgCF2CF3 = not defined here; Abu = CC[C@H](N)C(=O)O
Legend:
[1] = biological target: T1, HCV NS3 protease, genotype 1a (Hepatitis C virus genotype 1a, UniProt P26664); type: biochemical; conditions: substrate B
T1 construct: NS3 protease catalytic domain (amino acids 1 to 192); MGAQH expression leader (5 aa), or alternatively the 15 aa His tag […]; made in house; host or cells: E. coli BL21 (DE3)
Experimental: (§1) Endpoint HPLC based HCV protease assay: HCV protease (5 nM) was incubated in 50 mM Tris pH 7.5, 0.1% maltoside, 5 mM DTT and appropriate amounts of glycerol, NS4A peptide, and substrate. Routine assays were 100 μl in volume containing 15% or 50% glycerol, 5.0 μM NS4A peptide and 5.0 μM substrate. Reactions were run at room temperature (˜22° C.) and quenched by the addition of 4 μl of 10% TFA before 10% of the substrate was consumed. Incubation times were 20 minutes for the ester substrate (Peptide Substrate A) and 80 minutes for the P6-P7′ amide substrate (Peptide Substrate B). […] Incubation times were 90 min. Samples, 50 μl, were injected onto an Hewlett Packard 1090 Liquid Chromatograph containing a Dynamax-60A C18 column. The column was eluted with a linear gradient from 10% acetonitrile to 45% acetonitrile in water. All solvents contained 0.1% TFA. A flow rate of 1 ml/min was used. […] The product peaks were detected by fluorescence excitation at 350 nm and emission at 500 nm.
(§2) Footnote a for Table 1 references the assay condiditions: 1) Substrate A=P6-P3′, HCV protease (4.0 nM) was incubated with various concentrations of truncated analogs of Q9692 in 50 mM Tris buffer, pH 7.0, 15% glycerol, 0.1% maltoside, 5 mM DTT and 10 μM NS4A peptide in a 96-well microtiter plate at room temperature. After 15 minutes catalysis was initiated by the addition of Ac-D-E-D(EDANS)-E-E-Abuψ[COO]-A-S-K(DABCYL)—NH2 (final concentration 5.0 μM in a total reaction volume of 200 μl). Enzymatic activity was monitored by measuring the increase in fluorescence with time on a Perkin Elmer LS50B luminescence spectrometer (excitation 350 nm, emission 500 nm, both slits 10 nm). […] Assays were 100 μl in volume, reactions were run at room temperature (˜22 C) for 80 minutes (<10% of the substrate was consumed). The addition of 4 μl of 10% TFA quenched the reactions. Quantitation of hydrolysis products was determined by measuring fluorescent peak areas following HPLC. Products were detected by excitation at 350 nm and measuring emission at 500 nm. Aliquots (50 μl) of quenched enzymatic reactions were injected on an Hewlett Packard 1090 HPLC equipped with a ¼ inch Dynamex 60A C18 column. A linear gradient from 10% acetonitrile:H2O to 45% acetonitrile:H2O was run over a period of 15 min at a flow rate of 1.0 ml/min. All solvents contained 0.1% TFA.
Comparison of the effects of Q9692 on the hydrolysis of a P6-P3′ ester substrate (FIG. 2A) and a P6-P7′ substrate (FIG. 2B) and P6-P3′ amide substrate (FIG. 2C) were determined. For substrates A and B1 Concentrations of Q9692 are 0 (circles), 1 μM (squares), 2 μM (diamonds) and 4 μM (triangles). Assay conditions: HCV protease (5 nM) was incubated in 50 mM Tris buffer at pH 7.0, 15% glycerol, 0.1% maltoside, 5 mM DTT, 10 μM NS4A peptide, and specified concentration of substrate. Assays were 100 μl in volume and reactions were run at room temperature (22 C) and quenched by the addition of 4 μl of 10% TFA before 10% of the substrate was consumed. Incubation times were 20 minutes for the ester substrate and 80 minutes for the amide substrate. Hydrolysis products were quantitated by measuring fluorescent peak areas following HPLC and detection by excitation at 350 nm and measuring emission at 500 nm. Aliquots (50 μl) of quenched enzymatic reactions were injected on an Hewlett Packard 1090 HPLC equipped with a ¼ inch Dynamex 60A C18 column.

[2] = biological target: T1, HCV NS3 protease, genotype 1a; assay: biochemical; type: biochemical; conditions: for (S = P6-P3′) Inhibition(+) / Activation (−): substrate A
Experimental: as §1
Continuous fluorescence-based HCV protease assay: This asay was a modified version of method of Taliani (Taliani, M.; et al. Anal. Biochem. 240, 60-67, 1996) using Substrate A (Ac-D-E-D(EDANS)-E-E-Abuψ[COO]-A-S-K(DABCYL)—NH2). Assays were run in a 96-well microtiter plates using a Perkin Elmer Luminescence Spectrometer LS50B exciting at 350 nm (10 nm slit) and emitting at 500 nm (10 nm slit). In a typical assay the protease (1-4 nM) was incubated with 10 μM NS4a peptide in 50 mM Tris pH 7.0, 5.0 mM DTT, 50% glycerol, and […] for 15 min. Catalysis was initiated by the addition of Substrate A (final concentration 5.0 μM). Assays were also run under conditions where 15% glycerol, 0.1% Maltoside were substituted for 50% glycerol and 5% CHAPS. Enzymatic activity was monitored by measuring the increase in fluorescence with time using excitation wavelength of 350 nm and an emission wavelength of 500 nm. Both slit widths were 10 nm. Inhibition constants were determined from a nonlinear least squares fit of the data to the equation Vi/Vo=1/(1+[I]/Kiapp). Where Vi is the velocity measured in the presence of inhibitor (inhibitors were introduced with the NS4a peptide) and Vo is the velocity of controls. The thermodynamic Ki was determined from Kiapparent via the relationship for competitive kinetics: Ki=Kiapp/(1+[S]/Km) where [S] is the substrate concentration.
as §2

HCV protease [3] = conditions: cited from earlier work
HCV protease [4] = biological target: HCV protease (Hepatitis C virus genotype 1b, UniProt P26663); conditions: corresponding peptides as substrates; 50 mM Hepes pH 7.5, 1% CHAPS, 15% glycerol, NS4a cofactor peptide 80 μM; read-out: Ki; cited from earlier work
HCV protease (NS3) = biological target: T2, HCV protease (NS3) (Hepatitis C virus genotype 1a, UniProt P26664); type: binding; conditions: added to NS3 alone; excitation 280 nm
T2 construct: NS3 protease catalytic domain (amino acids 1 to 192); MGAQH expression leader (5 aa), or alternatively the 15 aa His tag MRGSHHHHHHMGAQH; made in house; host or cells: E. coli BL21 (DE3)
Experimental: Intrinsic fluorescence studies: Assays were conducted in 0.5 ml fluorescent cuvettes (0.4 ml total volume). […] Fluorescence spectra were obtained by exiting at 280 nm (10 nm slit) and scanning the emission profile from 300 to 400 nm (10 nm slit) at 1 nm s^−1.
Fluorescence spectrum of HCV protease (0.45 μM) in 50 mM Tris buffer, pH 7.0, containing 15% glycerol, and 0.10% maltoside were measured over a range of 300-400 nm using an excitation wavelength of 280 nm. Both excitation and emission slit widths were 10 nm and the scan rate was 1.0 nm sec^−1.

Row | Compound | (S = P6-P7′) Inhibition (+) / Activation (−) [1] | Kd [2] | (S = P6-P3′) Inhibition(+) / Activation (−) [2] | further results
1 | CC(=O)N[C@@H](CC(=O)O)C(=O)N[C@@H](CCC(=O)O)C(=O)N[C@H](C(=O)N[C@@H](CCC(=O)O)C(=O)N[C@@H](CC1CCCCC1)C(N)=O)C(c1ccccc1)c1ccccc1 [Q228, Ac-Asp-Glu-Dpa-Glu-Cha-NH2] (Ac-DE[Dip]E[Cha]-NH2) | + | 25 µM | − | 
2 | CC(=O)N[C@@H](CC(=O)O)C(=O)N[C@@H](CCC(=O)O)C(=O)N[C@H](C(=O)N[C@@H](CCC(=O)O)C(N)=O)C(c1ccccc1)c1ccccc1 [Q229, Ac-Asp-Glu-Dpa-Glu-NH2] (Ac-DE[Dip]E-NH2) | + | 240 µM | + | 
3 | CC(=O)N[C@@H](CC(=O)O)C(=O)N[C@@H](CCC(=O)O)C(=O)N[C@H](C(N)=O)C(c1ccccc1)c1ccccc1 [Q230, Ac-Asp-Glu-Dpa-NH2] (Ac-Asp-Glu-[Dip]-NH2) | + | 400 µM | + | 
4 | CC(=O)N[C@H](C(=O)N[C@@H](CCC(=O)O)C(=O)N[C@@H](CC1CCCCC1)C(N)=O)C(c1ccccc1)c1ccccc1 [Q236, Ac-Dpa-Glu-Cha-NH2] (Ac-[Dip]-Glu-[Cha]-NH2) | − | 66 µM | − | 
5 | CC(=O)N[C@@H](CCC(=O)O)C(=O)N[C@H](C(=O)N[C@@H](CCC(=O)O)C(=O)N[C@@H](CC1CCCCC1)C(N)=O)C(c1ccccc1)c1ccccc1 [Q240, Ac-Glu-Dpa-Glu-Cha-NH2] (Ac-E[Dip]E[Cha]-NH2) | − | 80 µM | − | 
6 | CC(=O)N[C@@H](CCC(=O)O)C(=O)N[C@@H](CC1CCCCC1)C(=O)N[C@@H](CS)C(=O)O [Q295, Ac-Glu-Cha-Cys-OH] (Ac-Glu-[Cha]-Cys-OH) | + | 300 µM | + | 
7 | CC(=O)N[C@H](C(=O)N[C@@H](CCC(=O)O)C(=O)N[C@@H](CC1CCCCC1)C(=O)N[C@@H](CS)C(=O)O)C(c1ccccc1)c1ccccc1 [Q296, Ac-Dpa-Glu-Cha-Cys-OH] (Ac-[Dip]E[Cha]C-OH) | − | 1.5 µM | − | 
8 | CC(=O)N[C@@H](CCC(=O)O)C(=O)N[C@H](C(=O)N[C@@H](CCC(=O)O)C(=O)N[C@@H](CC1CCCCC1)C(=O)N[C@@H](CS)C(=O)O)C(c1ccccc1)c1ccccc1 [Q297, Ac-Glu-Dpa-Glu-Cha-Cys-OH] (Ac-E[Dip]E[Cha]C-OH) | + | 40 µM | − | 
9 | C=CCC(NC(=O)[C@H](CC1CCCCC1)NC(=O)[C@H](CCC(=O)O)NC(=O)[C@@H](NC(=O)[C@H](CCC(=O)O)NC(=O)[C@H](CC(=O)O)NC(C)=O)C(c1ccccc1)c1ccccc1)B1OC2CC3CC(C3(C)C)C2(C)O1 (stereo partly drawn) [Q9716, Ac-Asp-Glu-Dpa-Glu-Cha-boroAlg—C10H16] (Ac-DE[Dip]E[Cha]-X1) |  |  |  | Ki [2]: ~0.005 µM
10 | Ac-Asp-(D)Glu-Chg-Val-X-Nva—OH |  |  |  | Ki (HCV protease [3]): 0.028 µM
11 | Ac-EDVW[Abu]C-OH |  |  |  | Ki (HCV protease [4]): 1.4 µM
12 | Asp-Glu-Val-Val-Pro-AlgCF2CF3 (DEVVP-AlgCF2CF3; reading uncertain; also: printed as Asp-Glu-Val-Val-Pro-AlgCF2CF3) [Q9714] |  |  |  | Dixon plots of 1/V versus Q9717 concentration ([2]; 5 μM substrate spanning P6-P3′): parallel lines
13 | DCSTPC [Ac-DCSTPC—OH] |  |  |  | Ki (HCV protease [4]): 180 µM
14 | DEMEEC [Ac-DEMEEC—OH] |  |  |  | Ki (HCV protease [4]): 0.6 µM
15 | KKGSVVIVGRIVLSGKPAIIPKK [NS4a] |  |  |  | increase in intrinsic fluorescence of the protease (NS3) (HCV protease (NS3)): 25%
